Experimental data from patent publication US12643871B2, “Aryl formamide compound containing chiral sulfur oxide or salt thereof, preparation method, herbicidal composition and use thereof” (Qingdao Kingagroot Chemical Compound Co., Ltd., priority 2019, dated 2026).

Legend:
Assay in all cases: Weeding effect in post-emergence stage
Assay type in all cases: in vivo
Conditions in all cases: 250 g/ha; 2 leaf stage; 15 days after application; fresh weight control rate
[1] = tested on: Amaranthus retroflexus
How it was run: (§1)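 Pot-grown weeds sprayed post-emergence at the 2-leaf stage, 2 weeks after sowing, with compound in acetone/Tween 80 plus 1.5 L/ha methyl oleate concentrate at 500–15 g/ha. Fresh-weight growth control scored after 15 days in greenhouse, mean of three replicates, graded levels 0–5 (5: >85%, 0: <5%).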

[2] = tested on: Abutilon theophrasti
How it was run: as §1

[3] = tested on: Echinochloa crusgali
How it was run: as §1

[4] = tested on: Setaria viridis
How it was run: as §1

[5] = tested on: Digitaria sanguinalis
How it was run: as §1

Row | SMILES | weeding effect in post-emergence stage, activity level (growth control rate), Amaranthus retroflexus [1] | weeding effect in post-emergence stage, activity level (growth control rate), Abutilon theophrasti [2] | weeding effect in post-emergence stage, activity level (growth control rate), Echinochloa crusgali [3] | weeding effect in post-emergence stage, activity level (growth control rate), Setaria viridis [4] | weeding effect in post-emergence stage, activity level (growth control rate), Digitaria sanguinalis [5]
1 | COc1c(C(=O)Nc2nnc(C)o2)ccc(C(F)(F)F)c1[S+]([O-])COCc1ccccc1 (centres unmarked) [Compound 347] | 5 (Level 5: growth control rate is above 85%) | 5 (Level 5: growth control rate is above 85%) | 5 (Level 5: growth control rate is above 85%) | 5 (Level 5: growth control rate is above 85%) | 5 (Level 5: growth control rate is above 85%)
2 | CCC[S@@+]([O-])c1c(C(F)(F)F)ccc(C(=O)Nc2nnco2)c1F [Compound 357] | 5 (Level 5: growth control rate is above 85%) | 5 (Level 5: growth control rate is above 85%) | 5 (Level 5: growth control rate is above 85%) | 5 (Level 5: growth control rate is above 85%) | 5 (Level 5: growth control rate is above 85%)
3 | CCC[S@@+]([O-])c1c(C(F)(F)F)ccc(C(=O)Nc2nnc(CC)o2)c1F [Compound 358] | 5 (Level 5: growth control rate is above 85%) | 5 (Level 5: growth control rate is above 85%) | 5 (Level 5: growth control rate is above 85%) | 5 (Level 5: growth control rate is above 85%) | 5 (Level 5: growth control rate is above 85%)
4 | CCC[S@@+]([O-])c1c(C(F)(F)F)ccc(C(=O)Nc2nnc(C(C)C)o2)c1F [Compound 359] | 5 (Level 5: growth control rate is above 85%) | 5 (Level 5: growth control rate is above 85%) | 5 (Level 5: growth control rate is above 85%) | 5 (Level 5: growth control rate is above 85%) | 5 (Level 5: growth control rate is above 85%)
5 | CC[S@@+]([O-])c1c(C(F)(F)F)ccc(C(=O)Nc2nnco2)c1OC [Compound 423] | 5 (Level 5: growth control rate is above 85%) | 5 (Level 5: growth control rate is above 85%) | 5 (Level 5: growth control rate is above 85%) | 5 (Level 5: growth control rate is above 85%) | 5 (Level 5: growth control rate is above 85%)
6 | CCc1nnc(NC(=O)c2ccc(C(F)(F)F)c([S@+]([O-])CC)c2OC)o1 [Compound 424] | 5 (Level 5: growth control rate is above 85%) | 5 (Level 5: growth control rate is above 85%) | 5 (Level 5: growth control rate is above 85%) | 5 (Level 5: growth control rate is above 85%) | 5 (Level 5: growth control rate is above 85%)
7 | CC[S@@+]([O-])c1c(C(F)(F)F)ccc(C(=O)Nc2nnnn2C)c1OC [Compound 445] | 5 (Level 5: growth control rate is above 85%) | 5 (Level 5: growth control rate is above 85%) | 5 (Level 5: growth control rate is above 85%) | 5 (Level 5: growth control rate is above 85%) | 5 (Level 5: growth control rate is above 85%)
8 | CCn1nnnc1NC(=O)c1ccc(C(F)(F)F)c([S@+]([O-])CC)c1OC [Compound 446] | 5 (Level 5: growth control rate is above 85%) | 5 (Level 5: growth control rate is above 85%) | 5 (Level 5: growth control rate is above 85%) | 5 (Level 5: growth control rate is above 85%) | 5 (Level 5: growth control rate is above 85%)
9 | CCCn1nnnc1NC(=O)c1ccc(C(F)(F)F)c([S@+]([O-])CC)c1OC [Compound 447] | 5 (Level 5: growth control rate is above 85%) | 5 (Level 5: growth control rate is above 85%) | 5 (Level 5: growth control rate is above 85%) | 5 (Level 5: growth control rate is above 85%) | 5 (Level 5: growth control rate is above 85%)
10 | CCC[S@@+]([O-])c1c(C(F)(F)F)ccc(C(=O)Nc2nnc(C)o2)c1OC [Compound 531] | 5 (Level 5: growth control rate is above 85%) | 5 (Level 5: growth control rate is above 85%) | 5 (Level 5: growth control rate is above 85%) | 5 (Level 5: growth control rate is above 85%) | 5 (Level 5: growth control rate is above 85%)
11 | CCC[S@@+]([O-])c1c(C(F)(F)F)ccc(C(=O)Nc2nnc(C)o2)c1OCC [Compound 532] | 5 (Level 5: growth control rate is above 85%) | 5 (Level 5: growth control rate is above 85%) | 5 (Level 5: growth control rate is above 85%) | 5 (Level 5: growth control rate is above 85%) | 5 (Level 5: growth control rate is above 85%)
12 | CCCOc1c(C(=O)Nc2nnc(C)o2)ccc(C(F)(F)F)c1[S@+]([O-])CCC [Compound 533] | 5 (Level 5: growth control rate is above 85%) | 5 (Level 5: growth control rate is above 85%) | 5 (Level 5: growth control rate is above 85%) | 5 (Level 5: growth control rate is above 85%) | 5 (Level 5: growth control rate is above 85%)
13 | CCC[S@@+]([O-])c1c(C(F)(F)F)ccc(C(=O)Nc2nnc(C)o2)c1OC(C)C [Compound 534] | 5 (Level 5: growth control rate is above 85%) | 5 (Level 5: growth control rate is above 85%) | 5 (Level 5: growth control rate is above 85%) | 5 (Level 5: growth control rate is above 85%) | 5 (Level 5: growth control rate is above 85%)
14 | CCCCOc1c(C(=O)Nc2nnc(C)o2)ccc(C(F)(F)F)c1[S@+]([O-])CCC [Compound 535] | 5 (Level 5: growth control rate is above 85%) | 5 (Level 5: growth control rate is above 85%) | 5 (Level 5: growth control rate is above 85%) | 5 (Level 5: growth control rate is above 85%) | 5 (Level 5: growth control rate is above 85%)
15 | CCC[S@@+]([O-])c1c(C(F)(F)F)ccc(C(=O)Nc2nnc(C)o2)c1Cl [Compound 543] | 5 (Level 5: growth control rate is above 85%) | 5 (Level 5: growth control rate is above 85%) | 5 (Level 5: growth control rate is above 85%) | 5 (Level 5: growth control rate is above 85%) | 5 (Level 5: growth control rate is above 85%)
16 | CSc1c(C(=O)Nc2nnc(C)o2)ccc(C(F)(F)F)c1[S@+]([O-])CC(C)C [Compound 551] | 5 (Level 5: growth control rate is above 85%) | 5 (Level 5: growth control rate is above 85%) | 5 (Level 5: growth control rate is above 85%) | 5 (Level 5: growth control rate is above 85%) | 5 (Level 5: growth control rate is above 85%)
